Data on 6 molecules can be found in patent US11878063B2, “Engineered ligands and uses thereof” (Children's Medical Center Corporation, priority 2019, dated 2024).

Assay [1] has as its target T1, PTHR16E (Homo sapiens, UniProt Q03431, A83I/D81R/G76A/K80A/K82Q/P78E/R79L/S71Q/S73D/S75E/T74Q).
T1 construct: expressed in transfected cells
T1 sequence (Q03431 27-593 S71Q/S73D/T74Q/S75E/G76A/P78E/R79L/K80A/D81R/K82Q/A83I): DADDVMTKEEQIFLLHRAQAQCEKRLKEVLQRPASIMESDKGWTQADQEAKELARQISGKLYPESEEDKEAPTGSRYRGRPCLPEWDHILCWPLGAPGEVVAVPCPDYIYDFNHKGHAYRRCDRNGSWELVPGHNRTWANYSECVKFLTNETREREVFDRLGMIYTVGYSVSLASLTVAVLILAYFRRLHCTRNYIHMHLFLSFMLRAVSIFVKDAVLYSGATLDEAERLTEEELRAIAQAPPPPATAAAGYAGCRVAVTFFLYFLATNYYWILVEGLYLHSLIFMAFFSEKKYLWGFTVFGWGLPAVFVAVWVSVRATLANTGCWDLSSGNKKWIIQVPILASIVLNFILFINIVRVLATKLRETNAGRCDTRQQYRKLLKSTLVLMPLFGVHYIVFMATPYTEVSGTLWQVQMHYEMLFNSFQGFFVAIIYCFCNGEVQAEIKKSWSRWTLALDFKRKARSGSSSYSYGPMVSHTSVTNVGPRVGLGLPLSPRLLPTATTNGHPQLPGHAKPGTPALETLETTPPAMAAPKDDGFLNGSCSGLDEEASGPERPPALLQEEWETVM
Briefly: cAMP induction in HEK293 cells stably expressing PTHR16E (6E/Ubc6e epitope tag in exon 2 segment). Format: cell-based. Here is the method:
(§1) Measurement of cAMP response. These assays were performed as previously described^27. Briefly, HEK-293-derived cell lines that stably express the Glosensor cAMP reporter (Promega Corp.)^30 and PTHR1, a PTHR1 variant, or PTHR2 were seeded into white sided 96 well plates (50,000 cells/well) and grown to confluency. Confluent monolayers of cells were pre-incubated with CO2 independent medium containing D-luciferin (0.5 mM) at 37° C. until a stable baseline level of luminescence was established (20 min). Varying concentrations of ligands were then added, and the time course of luminescence response was recorded using BioTek plate reader.
(§2) Data calculations. Data were processed using Microsoft Excel and GraphPad Prism 6. Data from cAMP dose-response assays were analyzed using a sigmoidal dose-response model with variable slope. Data sets were statistically compared by using Student's t test (two-tailed) assuming unequal variances for the two sets.
(§3) The portion of PTHR1 encoded by exon 2 is not resolved in structural studies (FIG. 12—Panel d)^13, 14, 17, is not important for ligand binding^18, and in past work has been targeted as a site for receptor modification^18, 19. A construct was generated that encodes a PTHR1 variant in which a 14-residue fragment from exon 2 was replaced with a 14-mer epitope tag from the intracellular protein UBC6e (PTHR16E, FIG. 12—Panel d)^20. A receptor construct in which a pH-sensitive green fluorescent protein variant (GFP) was inserted into the portion of the receptor encoded by exon 2 (PTHR1GFP in FIGS. 17A to 17C)^19. Another version of PTHR1 in which yellow fluorescent protein (YFP) replaces the entire extracellular domain (PTHR1YFPΔECD, FIG. 12—Panel e)^21, was also used.

Assay [2] has as its target T2, PTHR2 (Homo sapiens, UniProt P49190).
T2 construct: expressed in transfected cells
Briefly: cAMP induction in HEK293 cells stably expressing human PTHR2. The class given is cell-based. Here is the method: (§4) Measurement of cAMP response. These assays were performed as previously described^27. […] Confluent monolayers of cells were pre-incubated with CO2 independent medium containing D-luciferin (0.5 mM) at 37° C. until a stable baseline level of luminescence was established (20 min). Varying concentrations of ligands were then added, and the time course of luminescence response was recorded using BioTek plate reader.
as §2

In assay [3] the test system is PTHR1GFP. Put plainly: cAMP induction in HEK293 cells stably expressing PTHR1GFP. The class given is cell-based, human. Here is the method:
The GFP-PTHR1 fusion was stably expressed in cells that respond to receptor engagement by activation of a cAMP-sensitive version of luciferase. Exposure of these transfectants to PTH(1-11) yielded the expected dose-response curve with half maximal stimulation at ˜200 nM.
as §1, with “reader. The maximal luminescence response (observed 12-16 min after ligand addition) was used to construct dose-response data sets (Table 4, FIGS. 22A to 22E).” for “reader.”
as §2
as §3, with “While there is no structural information for any VHH bound to PTHR1, a mode of interaction was envisioned between the receptor and VHH-PTH conjugates like that depicted in FIG. 12—Panel c. The” for “The”

The test system of assay [4] is PTHR1YFPΔECD. Briefly: cAMP induction in HEK293 cells stably expressing PTHR1YFPΔECD (YFP replaces extracellular domain). Format: cell-based, human. How it is done:
as §1, §2, §3

Assay [5] has as its target T3, human PTHR1 (Homo sapiens, UniProt Q03431).
T3 construct: expressed in transfected cells
T3 sequence (Q03431 27-593): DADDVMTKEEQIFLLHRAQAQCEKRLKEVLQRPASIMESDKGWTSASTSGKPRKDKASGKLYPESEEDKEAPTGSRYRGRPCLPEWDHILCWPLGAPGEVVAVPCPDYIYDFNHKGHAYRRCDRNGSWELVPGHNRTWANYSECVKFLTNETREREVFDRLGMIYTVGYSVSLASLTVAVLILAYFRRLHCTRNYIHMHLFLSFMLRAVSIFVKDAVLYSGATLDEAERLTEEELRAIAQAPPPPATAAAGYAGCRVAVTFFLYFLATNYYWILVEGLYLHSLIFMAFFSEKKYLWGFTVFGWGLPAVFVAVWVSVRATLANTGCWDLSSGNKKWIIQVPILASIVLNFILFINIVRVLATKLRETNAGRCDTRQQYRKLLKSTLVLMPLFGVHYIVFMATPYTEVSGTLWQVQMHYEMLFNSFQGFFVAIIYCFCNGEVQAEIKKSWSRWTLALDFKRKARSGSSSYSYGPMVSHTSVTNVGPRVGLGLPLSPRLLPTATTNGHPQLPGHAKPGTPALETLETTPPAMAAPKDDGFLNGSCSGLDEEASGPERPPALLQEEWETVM
Briefly: cAMP induction (cAMP-responsive luciferase) in HEK293 cells stably expressing human PTHR1. The class given is cell-based. How it is done: as §4, §2

Assay [6] relates to Mice (CD1 female). Put plainly: Calcemic response: blood ionized calcium in mice after subcutaneous injection. The class given is in vivo, mouse. The conditions noted are these: 35 nmol/kg subcutaneous, n=4. How it is done: Animal experiments and measurement of in vivo response. Mice (CD1 female, age 11 weeks) were treated in accordance with the ethical guidelines adopted by Massachusetts General Hospital. […] Peptides and conjugates were administered at doses that allowed for differentiation between compounds with differing levels of in vivo activity^27. Statistical analyses were performed assuming Gaussian distribution of data. Mice (n=4 per compound) were injected subcutaneously with vehicle (10 mM citric acid/150 mM NaCl/0.05% Tween-80, pH 5.0) or vehicle containing PTH or conjugate at a dose of 35 nmol/kg body weight. […] Blood was withdrawn just before injection (t=0) or at times thereafter. Tail vein blood was collected and immediately analyzed. Blood Ca^2+ concentration was measured with a Siemens RapidLab 348 Ca2+/pH analyzer.

Assay [7] addresses T2, PTHR2. Briefly: Flow cytometry staining by VHH-Alexafluor647 of HEK293 cells expressing PTHR2. The conditions noted are these: 100 nM VHH. Format: binding. How it is done: Flow cytometry. Suspensions of cells in PBS were stained for 1 hour on ice in the presence of indicated concentrations of VHH probes functionalized with Alexafluor647. Cells were pelleted by centrifugation and washed with PBS prior to analysis by flow cytometry (BD Accuri C6). Gating was performed on forward scatter/side scatter profiles to analyze intact cells. Data was analyzed using FlowJo version 7.6. The median fluorescent intensity (MFI) of stained cells was used to generate VHH binding dose response curves (FIG. 20).
For orientation: In flow cytometry, cells or beads pass a laser one at a time.

[8] abbreviates: maximal cAMP response, normalized.
[9] abbreviates: mean ± SD, Inactive = response <5% of maximal.

Square brackets hold non-standard residues; d marks the D form. Ends that are not written are not given here. Peptide text beside a SMILES is read from it. hArg = N=C(N)NCCCC[C@H](N)C(=O)O; Aib = CC(C)(N)C(=O)O

T2 sequence (P49190 25-550): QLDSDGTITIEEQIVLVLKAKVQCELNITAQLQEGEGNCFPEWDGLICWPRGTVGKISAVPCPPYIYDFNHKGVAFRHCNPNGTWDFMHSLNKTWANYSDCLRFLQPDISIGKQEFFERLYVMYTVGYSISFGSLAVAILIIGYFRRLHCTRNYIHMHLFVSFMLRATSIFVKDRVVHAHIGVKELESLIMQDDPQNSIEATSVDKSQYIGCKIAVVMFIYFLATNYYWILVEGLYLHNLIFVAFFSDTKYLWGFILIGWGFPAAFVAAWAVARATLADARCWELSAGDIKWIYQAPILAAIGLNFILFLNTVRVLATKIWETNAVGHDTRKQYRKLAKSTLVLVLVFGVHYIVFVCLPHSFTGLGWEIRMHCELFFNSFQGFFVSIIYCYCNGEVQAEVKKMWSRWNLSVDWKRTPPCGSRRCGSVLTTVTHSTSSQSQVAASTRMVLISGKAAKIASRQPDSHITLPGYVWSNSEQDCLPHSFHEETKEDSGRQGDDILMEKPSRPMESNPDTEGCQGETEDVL

Usually EC50 stands for the concentration needed to bring the measured effect to its halfway point. For `CC[C@H](C)[C@H](NC(=O)[C@H](CCC(=O)O)NC(=O)C(C)(C)NC(=O)[C@@H](NC(=O)[C@H](C)N)C(C)C)C(=O)N[C@@H](CCC(N)=O)C(=O)N[C@@H](CC(C)C)C(=O)N[C@@H](CCSC)C(=O)N[C@@H](Cc1c[nH]cn1)C(=O)N[C@@H](CCC(N)=O)C(=O)N[C@@H](CCCNC(=N)N)C(=O)N[C@@H](C)C(=O)N[C@@H](CCCCN)C(=O)N[C@@H](Cc1c[nH]c2ccccc12)C(=O)N[C@@H](CS)C(N)=O` [PTH(1-14)] (H-AV[Aib]EIQLMHQRAKWC-NH2), the “Max (normalized ± SD), hPTHR16E” value in assay [1] (setting [8]) was 1.06 ± 0.12. In addition, the “activation of human PTHR2 (in words)” value in assay [2] is listed as “activated”. For the same molecule, in assay [2] (setting [8]), the “Max (normalized ± SD), hPTHR2” value is recorded as 1.14 ± 0.28. Further, the concentration giving a half-maximal response (EC50) came to 924 ± 328 nM in assay [2] (mean ± SD, read-out: EC50, cAMP induction, hPTHR2); 2.3 ± 1.2 nM in assay [3] (mean ± SD, Inactive = response <5% of maximal, read-out: EC50, cAMP induction, hPTHR1GFP); 1.1 ± 0.9 nM in assay [4] (mean ± SD, Inactive = response <5% of maximal, read-out: EC50, cAMP induction, hPTHR1YFPΔECD); 4.3 ± 2 nM in assay [5] (mean ± SD, Inactive = response <5% of maximal response at that concentration, read-out: EC50, cAMP induction, hPTHR1). In assay [3] (setting [8]), the “Max (normalized ± SD), hPTHR1GFP” value was 1.09 ± 0.03. The “Max (normalized ± SD), hPTHR1YFPΔECD” value in assay [4] (setting [8]) was found to be 0.96 ± 0.04. For the same molecule, the “activation of wild-type human PTHR1 (in words)” value in assay [5] was “activated”. Further, the “Max (normalized ± SD), hPTHR1” value in assay [5] (setting [8]) is reported as 1.01 ± 0.07.

For the molecule “M-PTH(1-14): UVUEIQLMHQXAKW (SEQ ID NO: 90) where U is Aib and X is homoarginine ([Aib]V[Aib]EIQLMHQ[hArg]AKW; not fully specified (C-terminus))”, the “blood ionized calcium response” value in assay [6] is recorded as “little if any activity”.

As to TIP 39, the “activation of human PTHR2 (in words)” value in assay [2] is “activated”.

As for “modified N-terminal PTH fragment with Aib3, amide; probably AV(Aib)EIQLMH (SEQ ID NO: 86) [PTH(1-9)]”, the “EC50, cAMP induction, PTHR16E” value in assay [1] (setting [9]) was “Inactive at 10,000 nM”. For the same molecule, in assay [3] (setting [9]), the “EC50, cAMP induction, hPTHR1GFP” value is reported as “Inactive at 10,000 nM”. Besides, the “activation of PTHR1 with ECD replaced by fluorescent protein (in words)” value in assay [4] is “inactive alone”. In assay [4] (setting [9]), the “EC50, cAMP induction, hPTHR1YFPΔECD” value is given as “Inactive at 10,000 nM”. Moreover, in assay [5] (mean ± SD, Inactive = response <5% of maximal response at that concentration), the “EC50, cAMP induction, hPTHR1” value is “Inactive at 10,000 nM”.

B1: VHH6E: nanobody that recognizes a 14-mer peptide from UBC6e (…), SEQ ID NO: 71 (protein)
VHH: QVQLQESGGGLVQPGGSLRLSCAASGFVFENSAMAWYRQAPGKERELIAVIGTTFIKLAESVKGRFTISRDNAKSTVYLQMNNLKPEDTAVYYCSKSGAYWGQGTQVTVSSLPETGG
On to B1, for which the “binding to PTHR2 (in words)” value in assay [7] is on record as “lack of binding”.

B2: VHH05-PTH(1-34): PTH(1-34)-Cys conjugated to nanobody VHH05 (conjugate)
VHH: QVQLQESGGGLVQPGGSLRLSCAASGFVFENSAMAWYRQAPGKERELIAVIGTTFIKLAESVKGRFTISRDNAKSTVYLQMNNLKPEDTAVYYCSKSGAYWGQGTQVTVSS
peptide: SVSEIQLMHNLGKHLNSMERVEWLRKKLQDVHNFC
Turning to B2, the “activation of wild-type human PTHR1 (in words)” value in assay [5] is given as “activates”.
